# Reference: patent US7056491B2, “Monoterpenes and sesquiterpenes as chemotherapeutic and radiation sensitizers and immunomodulators” (Wisconsin Alumni Research Foundation, priority 2000, dated 2006)
# Like-named read-outs stand apart in the source and are kept apart here.
# Experiments:
# [1] = test system: MIAPACA pancreatic cancer cells; assay: Clonogenic survival assay, POH with or without radiation, MIAPACA; assay type: cell-based, human
# Procedure: Table 1 summarizing data from different cell lines treated with radiation, radiation plus POH, and POH alone. Subconfluent cultures of human glioma (T98G, M059K, U251), prostate (DU145, PC3), colon (DLD-1, HT29) and pancreatic (MIAPACA) cancer cell lines were treated with 0.1–0.5 mM of POH for 72 hours and subsequently to increasing doses of radiation from 0.1 Gy to 8.5 Gy. Control cells were treated with medium alone. The cells were harvested and an optimum number of cells were allowed to grow for 14 days. The resulting colonies were stained and counted. Each graphed point represents mean values ± SE values of triplicate dishes. Percentage survival was determined as the ratio of plating efficiencies for each irradiated group to that of the unirradiated control.
# rat mammary carcinoma = conditions: cited from earlier work; for regression of rat mammary carcinoma: dietary administration
# [2] = test system: glioma, prostate, colon and melanoma cell lines; assay: Apoptosis by flow cytometry of propidium iodide stained cells (sub G0/G1 peak); assay type: cell-based, human; conditions: 72 hours
# Source text: In the present study we evaluated the effect of POH treatment on a panel of human glioma (T98G, MO59K, U-87, U-373, U-251), prostate cancer cell lines (PC3 and DU145), colon (DLD-1, HT29), melanoma (Mel5, M21).
# [3] = test system: Fas-sensitive Jurkat cell line; assay: Cell death of Jurkat cells incubated with POH-treated T98G; assay type: cell-based; conditions: T98G treated 0.1 mM–0.5 mM 48 hours, then Jurkat 48 hours
# Procedure: Referring to FIG. 27, subconfluent cells of T98G cells were treated with varying concentrations of perillyl alcohol (0.1 mM–0.5 mM) for 48 hours. At the end of the incubation the media was changed, cells from a Fas-sensitive Jurkat cell line were added to the plate, and the incubation was continued further for 48 hours. At the end of the incubation the target cells (Jurkat) were harvested, washed and the cell viability was assessed.
# [4] = rats, 2% POH diet for 10 weeks; cited from earlier work
# T98G cells = assay: Clonogenic survival, POH pretreatment then doxorubicin, T98G; assay type: cell-based, human; conditions: POH 0.1 mM–0.5 mM 48 hours then doxorubicin 0.01 uM–0.1 uM 48 hours
# Procedure: Referring to FIG. 29, subconfluent cells of T98G cells were treated with varying concentrations of perillyl alcohol (0.1 mM–0.5 mM) for 48 hours and subsequently treated with the indicated dose of doxorubicin (0.01 uM–0.1 uM) for 48 hours. At the end of the treatment, POH-pretreated and untreated cells in the presence and absence of doxorubicin, were harvested, washed with PBS, plated at the desired cell number and incubated for two weeks. The colonies were stained with crystal violet and quantitated. Survival was determined as the ratio of plating efficiencies for each irradiated group to that of the untreated control. […] Doxorubicin at concentrations over 0.1 uM appeared to be toxic to the cells.
# [5] = test system: glioma and prostate cancer cell lines; assay: Apoptosis by dual colored (PI and Annexin V) flow cytometry; assay type: cell-based, human; conditions: 1 mM POH, 72 hours
# Procedure: Glioma (T98G, U251, U353, U87 and MO59K) and prostate (DU145, PC3) cell lines were treated with or without 1 mM perillyl alcohol (POH) for 72 hours. The cells were harvested by trypsinization washed with PBS and subsequently staimed with antibody to annexin V conjugated to FITC and with PI (10 μg/ml). Viable (annexin V^−/PI^−) pre-apoptotic (annexin V^+/PI^−), apoptotic (annexin V^+/PI^+), and the residual damaged (annexin V^−/PI^+) cells were quantitated using this protocol.
smiles,measurement,setting,value
"C=C(C)[C@@H]1CC=C(CO)CC1 [POH, Perillyl alcohol]",% SURVIVAL,"[1]; 0.1 mM POH 72 h, no radiation",1.503 ± 0.05%
same,% SURVIVAL,[1]; 0.1 mM POH + 5.5 Gy,0.154 ± 0.018%
same,% SURVIVAL,"[1]; 0.3 mM POH 72 h, no radiation",0.750 ± 0.05%
same,% SURVIVAL,[1]; 0.3 mM POH + 5.5 Gy,0.059 ± 0.008%
same,% SURVIVAL,"[1]; 0.5 mM POH 72 h, no radiation",0.450 ± 0.07%
same,% SURVIVAL,[1]; 0.5 mM POH + 5.5 Gy,0.015 ± 0.0027%
same,potency at inducing tumor regression relative to limonene,rat mammary carcinoma; dietary,greater than five times more potent than limonene
same,regression of rat mammary carcinoma,rat mammary carcinoma; induced by DMBA,84%
same,regression of rat mammary carcinoma,rat mammary carcinoma; induced by NMU,60%
same,effect of higher concentrations on tumor cell lines,[2]; 1 mM POH,cell death via apoptosis
same,toxicity to tumor cell lines,[2]; clinically relevant doses 0.1 mM–0.5 mM,relatively non-toxic
same,function of Fas Ligand on treated T98G towards Jurkat cells,[3],brought about cell death
same,plasma levels of terpene metabolites,[4],820 µM
same,sensitization to doxorubicin-induced cell death,T98G cells,dose-dependent sensitization
same,early and late apoptotic cells (annexin V/PI),[5],increase in the percentage of early as well as late apoptotic cells
